Source: ChEMBL document CHEMBL4732209, “Indole scaffolds as a promising class of the aryl hydrocarbon receptor ligands” (Eur J Med Chem, 2021)

Columns and labels:
[1] = biological target: T1, Aryl hydrocarbon receptor (Homo sapiens, UniProt P35869); assay: Agonist activity at AHR in human MDA-MB-468 cells incubated for 24 hrs by Western blot analysis; format: cell-based
T1 sequence (P35869 whole entry): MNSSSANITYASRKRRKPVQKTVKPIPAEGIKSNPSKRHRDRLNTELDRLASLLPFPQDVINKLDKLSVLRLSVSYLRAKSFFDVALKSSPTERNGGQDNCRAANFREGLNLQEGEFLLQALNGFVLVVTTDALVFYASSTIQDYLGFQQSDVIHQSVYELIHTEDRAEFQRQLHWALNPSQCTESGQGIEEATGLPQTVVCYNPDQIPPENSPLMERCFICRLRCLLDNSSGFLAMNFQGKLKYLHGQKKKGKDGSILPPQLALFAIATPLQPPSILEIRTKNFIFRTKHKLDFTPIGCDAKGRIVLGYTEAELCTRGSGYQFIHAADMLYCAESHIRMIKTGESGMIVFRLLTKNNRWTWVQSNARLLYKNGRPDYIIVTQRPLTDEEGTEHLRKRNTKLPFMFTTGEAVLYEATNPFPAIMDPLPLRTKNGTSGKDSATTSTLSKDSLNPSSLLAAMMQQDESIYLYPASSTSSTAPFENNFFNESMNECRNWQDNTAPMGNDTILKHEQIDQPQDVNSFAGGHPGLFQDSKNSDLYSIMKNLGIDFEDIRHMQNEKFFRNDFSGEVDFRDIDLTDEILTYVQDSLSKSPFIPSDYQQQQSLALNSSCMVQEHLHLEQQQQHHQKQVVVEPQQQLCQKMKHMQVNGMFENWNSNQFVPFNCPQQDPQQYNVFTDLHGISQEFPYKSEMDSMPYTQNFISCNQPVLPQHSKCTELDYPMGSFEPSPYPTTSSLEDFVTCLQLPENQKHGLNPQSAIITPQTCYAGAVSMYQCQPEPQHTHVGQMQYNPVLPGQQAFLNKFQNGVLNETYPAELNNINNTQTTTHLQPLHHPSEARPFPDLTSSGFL

[2] = biological target: T1, Aryl hydrocarbon receptor; assay: Agonist activity at AHR in human HepG2 cells incubated for 4.5 hrs by Luciferase reporter assay; format: cell-based
[3] = biological target: T1, Aryl hydrocarbon receptor; assay: Agonist activity at AHR in human AZ-AHR stable HepG2 cells by Luciferase reporter assay

SMILES	EC50 [2]	EC50 [3]	EC50 [1]
Clc1c(Cl)c(Cl)c2c([nH]c3c(Cl)c(Cl)c(Cl)c(Cl)c32)c1Cl	–	–	< 1000 nM
Brc1c(Br)c(Br)c2c([nH]c3c(Br)c(Br)c(Br)c(Br)c32)c1Br	–	–	< 1000 nM
N#Cc1cccc(C(=O)c2c[nH]c3ccccc23)n1	2 nM	–	–

Further lines, with some results ahead:

EC50 [2]	EC50 [3]	SMILES	EC50 [1]
2 nM	–	O=C(c1cccc(C(F)(F)F)n1)c1c[nH]c2ccccc12	–
–	1600 nM	OC(c1ccncc1)(c1cc2ccccc2[nH]1)c1cc2ccccc2[nH]1	–
–	1600 nM	CCOn1c(C(O)(c2ccncc2)c2cc3ccccc3[nH]2)cc2ccccc21 (stereo unspecified)	–
